Test results as given in ChEMBL document CHEMBL1140713, “2,3-dihydro-6,7-dihydroxy-1H-isoindol-1-one-based HIV-1 integrase inhibitors” (J Med Chem, 2008).

What was measured:
[1] = target: T1, Human immunodeficiency virus type 1 integrase (Human immunodeficiency virus 1, UniProt Q7ZJM1); experiment: Inhibition of recombinant HIV1 integrase-mediated 3'-processing activity in presence of magnesium
[2] = target: T1, Human immunodeficiency virus type 1 integrase; experiment: Inhibition of recombinant HIV1 integrase strand transfer activity in presence of magnesium
[3] = target: T1, Human immunodeficiency virus type 1 integrase; experiment: Inhibition of recombinant HIV1 integrase-mediated 3'-processing activity in presence of manganese
[4] = target: T1, Human immunodeficiency virus type 1 integrase; experiment: Inhibition of recombinant HIV1 integrase strand transfer activity in presence of manganese
[5] = tested on: Human immunodeficiency virus 1; experiment: Antiviral activity against HIV1 in cell based assay; type: functional, organism-based

T1 sequence (Q7ZJM1 whole entry): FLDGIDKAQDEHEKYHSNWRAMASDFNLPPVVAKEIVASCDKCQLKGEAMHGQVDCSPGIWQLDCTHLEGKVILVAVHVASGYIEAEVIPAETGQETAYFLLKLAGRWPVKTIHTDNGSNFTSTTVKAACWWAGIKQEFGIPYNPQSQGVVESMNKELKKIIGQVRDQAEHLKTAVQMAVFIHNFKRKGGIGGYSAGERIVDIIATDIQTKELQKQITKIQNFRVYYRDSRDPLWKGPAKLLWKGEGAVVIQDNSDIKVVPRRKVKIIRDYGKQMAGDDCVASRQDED

O=C1c2c(ccc(O)c2O)CN1Cc1cccc2ccccc12
IC50 [1]: 61 µM
IC50 [2]: 0.74 µM

O=C(NN1Cc2ccc(O)c(O)c2C1=O)c1ccc(F)cc1
IC50 [1]: > 333 µM
IC50 [2]: 170 µM

O=C(NNC(=O)c1cccc(O)c1O)c1ccccc1O
IC50 [1]: > 333 µM
IC50 [3]: 2.8 µM
IC50 [2]: > 333 µM
IC50 [4]: 0.5 µM
EC50 [5]: 4.8 µM

O=C(NN1Cc2ccc(O)c(O)c2C1=O)c1ccccc1O
IC50 [1]: > 333 µM
IC50 [2]: 293 µM

O=C(NNC(=O)c1ccccc1O)c1ccccc1O
IC50 [1]: > 333 µM
IC50 [3]: 3.6 µM
IC50 [2]: > 333 µM
IC50 [4]: 1.8 µM
EC50 [5]: 2.2 µM

O=C(NCc1ccc(F)cc1)c1cccc(O)c1O
IC50 [1]: > 333 µM
IC50 [2]: 108 µM
EC50 [5]: > 30 µM

O=C1c2c(ccc(O)c2O)CN1N1C(=O)c2cccc(O)c2C1=O
IC50 [1]: 42 µM
IC50 [2]: 11 µM

O=C1c2c(ccc(O)c2O)CN1N(S(=O)(=O)c1ccc(O)c(O)c1)S(=O)(=O)c1ccc(O)c(O)c1
IC50 [1]: 1.6 µM
IC50 [2]: 0.21 µM

O=C(NCCNC(=O)c1cccc(O)c1O)c1cccc(O)c1O
IC50 [1]: 85 µM
IC50 [2]: 50 µM

O=C1c2c(ccc(O)c2O)CN1N1C(=O)c2cc(O)c(O)cc2C1=O
IC50 [1]: 6.7 µM
IC50 [2]: 0.81 µM

O=C1c2c(ccc(O)c2O)CN1N1C(=O)c2ccc(O)c(O)c2C1=O
IC50 [1]: 78 µM
IC50 [2]: 0.6 µM

O=C(N/N=C/c1cccc(O)c1O)c1cccc(O)c1O
IC50 [1]: 61 µM
IC50 [3]: 11 µM
IC50 [2]: 54 µM
IC50 [4]: 1.3 µM

O=C(NN1Cc2ccc(O)c(O)c2C1=O)c1ccccc1
IC50 [1]: > 333 µM
IC50 [2]: 129 µM

NNC(=O)c1cccc(O)c1O
IC50 [1]: > 333 µM
IC50 [3]: > 333 µM
IC50 [2]: > 333 µM
IC50 [4]: 111 µM

O=C1c2c(ccc(O)c2O)CN1N1Cc2ccc(O)c(O)c2S1(=O)=O
IC50 [1]: 7 µM
IC50 [2]: 1.2 µM

COc1cccc(C(=O)NNC(=O)c2cccc(OC)c2O)c1O
IC50 [1]: 245 µM
IC50 [3]: 26 µM
IC50 [2]: 123 µM
IC50 [4]: 22 µM

O=C1c2c(ccc(O)c2O)CN1/N=C/c1ccc(F)cc1
IC50 [1]: > 333 µM
IC50 [2]: > 333 µM

O=C1c2c(ccc(O)c2O)CN1Cc1cccc(Cc2ccccc2)c1
IC50 [1]: > 333 µM
IC50 [2]: 172 µM

O=C1c2c(ccc(O)c2O)CN1N1C(=O)c2ccc(F)cc2C1=O
IC50 [1]: 186 µM
IC50 [2]: 53 µM

O=C1c2c(ccc(O)c2O)CN1N1Cc2ccc(O)c(O)c2C1=O
IC50 [1]: 124 µM
IC50 [2]: 41 µM

COc1cccc(C(=O)NCc2ccc(F)cc2)c1O
IC50 [1]: > 333 µM
IC50 [2]: > 333 µM

O=C1c2c(ccc(O)c2O)CN1N(S(=O)(=O)c1ccc(F)cc1)S(=O)(=O)c1ccc(F)cc1
IC50 [1]: > 333 µM
IC50 [2]: 33 µM

O=C1c2cccc(O)c2C(=O)N1Cc1ccc(F)cc1
IC50 [1]: > 333 µM
IC50 [2]: > 333 µM

O=C(NNC(=O)c1cccc(O)c1O)c1cccnc1
IC50 [1]: > 333 µM
IC50 [3]: > 333 µM
IC50 [2]: > 333 µM
IC50 [4]: 112 µM

O=C1c2c(ccc(O)c2O)CN1Cc1cccc(CBr)c1
IC50 [1]: 37 µM
IC50 [2]: 13 µM

O=C1c2c(ccc(O)c2O)CN1/N=C/c1cccc(O)c1O
IC50 [1]: 87 µM
IC50 [2]: 54 µM

COc1cccc(C(=O)NNC(=O)c2cc3ccccc3cc2O)c1O
IC50 [1]: > 333 µM
IC50 [3]: 12 µM
IC50 [2]: > 333 µM
IC50 [4]: 8 µM

O=C(NN1Cc2ccc(O)c(O)c2C1=O)c1cccc(O)c1O
IC50 [1]: > 333 µM
IC50 [2]: 6 µM

COc1cccc(C(=O)NNC(=O)c2cccnc2)c1O
IC50 [1]: > 333 µM
IC50 [3]: > 333 µM
IC50 [2]: > 333 µM
IC50 [4]: > 333 µM

O=C1c2c(ccc(O)c2O)CN1Cc1ccccc1
IC50 [1]: > 333 µM
IC50 [2]: 12.3 µM
EC50 [5]: 0.68 µM

O=C1c2c(ccc(O)c2O)CN1CCc1ccccc1
IC50 [1]: > 333 µM
IC50 [2]: 28 µM

O=C1c2c(ccc(O)c2O)CN1Cc1ccc(F)cc1
IC50 [1]: 282 µM
IC50 [2]: 10 µM
EC50 [5]: 0.77 µM

O=C(NCCCNC(=O)c1cccc(O)c1O)c1cccc(O)c1O
IC50 [1]: 33 µM
IC50 [2]: 31 µM

O=C1c2c(ccc(O)c2O)CN1N1C(=O)c2ccccc2C1=O
IC50 [1]: > 333 µM
IC50 [2]: > 333 µM

O=C(NNC(=O)c1cccc(O)c1O)c1cc2ccccc2cc1O
IC50 [1]: 72 µM
IC50 [3]: 19 µM
IC50 [2]: 32 µM
IC50 [4]: 16 µM

O=C1c2ccc(O)c(O)c2CN1Cc1ccc(F)cc1
IC50 [1]: > 333 µM
IC50 [2]: > 333 µM

O=C1c2c(ccc(O)c2O)CN1Cc1ccc(F)c(Cl)c1
IC50 [1]: 13 µM
IC50 [2]: 0.16 µM

COc1cccc(/C=N/NC(=O)c2cccc(O)c2O)c1OC
IC50 [1]: 112 µM
IC50 [3]: > 333 µM
IC50 [2]: 68 µM
IC50 [4]: 18 µM

COc1cccc(C(=O)NNC(=O)c2cccc(O)c2O)c1O
IC50 [1]: 138 µM
IC50 [3]: 11 µM
IC50 [2]: 44 µM
IC50 [4]: 9 µM

COc1cccc(C(=O)NN)c1O
IC50 [1]: > 333 µM
IC50 [3]: > 333 µM
IC50 [2]: > 333 µM
IC50 [4]: > 333 µM

O=C1c2c(ccc(O)c2O)CN1NS(=O)(=O)c1ccc(F)cc1
IC50 [1]: 69 µM
IC50 [2]: 21 µM

COc1cccc(C(=O)N/N=C/c2ccc(F)cc2)c1O
IC50 [1]: > 333 µM
IC50 [2]: > 333 µM

O=C(NNC(=O)c1cccc(O)c1O)c1cccc(O)c1O
IC50 [1]: 6.9 µM
IC50 [3]: 8.9 µM
IC50 [2]: 1.6 µM
IC50 [4]: 5 µM
EC50 [5]: 1.67 µM
